Some test systems named below: U251 CNS; NCI/ADR-RES ovarian; A498 renal; COLO 205 colon; MDA-N; HS 578T breast; SN12C renal; OVCAR-8 ovarian; SF-539 CNS; HOP-62 NSCLC; HCT-116 colon.
Assay in all cases: inhibition of tumour cell growth, NCI panel, 48 h

The structures appear in SMILES notation.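 Protocol summary: plate cells (96-well), add compound at 5 concentrations, incubate 48 h, interpolate endpoints linearly. TGI is the concentration that stops growth completely.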

Take `Clc1cccc(C2ON=C(c3ccccc3)N2C23CC4CC(CC(C4)C2)C3)c1Cl` (configuration not stated): the TGI with U251 CNS, with NCI/ADR-RES ovarian, in the test with A498 renal, with COLO 205 colon, with MDA-N and with HS 578T breast was over 10 µM throughout. Further, the TGI in the test on SN12C renal, in the test with OVCAR-8 ovarian, in the test with SF-539 CNS, in the test on HOP-62 NSCLC and with HCT-116 colon was over 10 µM in each case.
Take `COc1ccc(N2C(=O)C3c4[nH]c5ccccc5c4C4C(C)CCCC4C3C2=O)cc1` (configuration not stated): the TGI in the test with U251 CNS was over 100 µM; in the test on NCI/ADR-RES ovarian, over 100 µM; in the test on A498 renal, over 100 µM; in the test on COLO 205 colon it was over 100 µM; in the test on MDA-N it was 18.3 µM; with HS 578T breast, 96 µM. In addition, the TGI in the test with SN12C renal is over 100 µM; in the test on OVCAR-8 ovarian, over 100 µM; in the test on SF-539 CNS, over 82.8 µM; in the test on HOP-62 NSCLC, over 96.2 µM; with HCT-116 colon, over 100 µM.
On to `COC(=O)[C@H]1C=C[C@H](OC2OC(COC(C)=O)C(OC(C)=O)C(OC(C)=O)C2OC(C)=O)n2c(=O)n(-c3ccccc3)c(=O)n21` (some centres not stated), for which the TGI with U251 CNS was 27.9 µM; with NCI/ADR-RES ovarian it was 61.8 µM; in the test with A498 renal, 17.6 µM; in the test on COLO 205 colon, 3.6 µM; with MDA-N it was 18.5 µM; with HS 578T breast it was 9.59 µM. Further, the TGI in the test on SN12C renal was 19.9 µM; with OVCAR-8 ovarian, 26.4 µM; in the test on SF-539 CNS it was 4.44 µM; with HOP-62 NSCLC, 21.1 µM; with HCT-116 colon, over 30.5 µM.
With `O=CN(O)CC(=O)O`, the TGI in the test with U251 CNS, in the test on NCI/ADR-RES ovarian, in the test on A498 renal, with COLO 205 colon, in the test on MDA-N and in the test on HS 578T breast was over 100 µM in each case. For the same compound, the TGI with SN12C renal, with OVCAR-8 ovarian, in the test with SF-539 CNS, with HOP-62 NSCLC and in the test with HCT-116 colon was over 100 µM each time.
For the compound `O=C(/C=C1\C[C@H]2C=Nc3ccccc3C(=O)N2C1)NCCCCCNC(=O)/C=C1\C[C@H]2C=Nc3ccccc3C(=O)N2C1`, the TGI with U251 CNS was 9.05 µM; with NCI/ADR-RES ovarian it was 55.9 µM; in the test on A498 renal, 33.5 µM; in the test on COLO 205 colon, over 21 µM; with MDA-N it was 21.5 µM; in the test with HS 578T breast it was over 67.6 µM. The TGI is 10.6 µM in the test with SN12C renal; 7.31 µM in the test on OVCAR-8 ovarian; over 49.9 µM with SF-539 CNS; 31.8 µM in the test with HOP-62 NSCLC; 20.1 µM with HCT-116 colon.
On to `CCOC(=O)c1ccc(C(=O)/C(C(=O)OC(C)(C)C)=C2\CCCN2C)n1C`, for which the TGI in the test on U251 CNS, with NCI/ADR-RES ovarian, in the test on A498 renal, in the test on COLO 205 colon, in the test on MDA-N and with HS 578T breast was over 100 µM each time. In addition, the TGI in the test on SN12C renal, in the test on OVCAR-8 ovarian, in the test with SF-539 CNS, with HOP-62 NSCLC and with HCT-116 colon was over 100 µM throughout.
In the case of `OCC1OC(O[C@H]2CN3[C@H](O)[C@@H](O)[C@H](O)[C@H]3C2O)C(O)C(O)C1O` (some centres not stated), the TGI in the test with U251 CNS, with NCI/ADR-RES ovarian, with A498 renal, in the test on COLO 205 colon, in the test with MDA-N and in the test on HS 578T breast was over 100 µM in each case. The TGI with SN12C renal, with OVCAR-8 ovarian, with SF-539 CNS, in the test on HOP-62 NSCLC and in the test on HCT-116 colon was over 100 µM in each case.
As for `c1ccc(-c2ccc(N=NN3CCCC3)cc2)cc1`, the TGI in the test with U251 CNS, in the test on NCI/ADR-RES ovarian, in the test with A498 renal, in the test with COLO 205 colon, in the test with MDA-N and in the test on HS 578T breast was over 100 µM each time. In addition, the TGI in the test with SN12C renal, with OVCAR-8 ovarian, in the test on SF-539 CNS, in the test on HOP-62 NSCLC and in the test on HCT-116 colon was over 100 µM each time.
`CC(O)(C(=O)N(O)c1ccc(Cl)cc1)c1ccc(Cl)cc1` (configuration not stated): the TGI was 64.4 µM in the test with U251 CNS; 86.6 µM in the test on NCI/ADR-RES ovarian; 71.7 µM with A498 renal; 33 µM in the test with COLO 205 colon; over 100 µM in the test on MDA-N; 62.4 µM in the test on HS 578T breast. For the same compound, the TGI is over 100 µM in the test with SN12C renal; over 100 µM in the test with OVCAR-8 ovarian; over 100 µM in the test with SF-539 CNS; 93 µM in the test with HOP-62 NSCLC; 96.1 µM with HCT-116 colon.
Take `COc1ccc(CN2C(=O)C(=O)N(C)C2=O)c2ccccc12`: the TGI in the test on U251 CNS, in the test with NCI/ADR-RES ovarian, in the test on A498 renal, in the test on COLO 205 colon, with MDA-N and in the test with HS 578T breast was over 10 µM in each case. Further, the TGI in the test with SN12C renal, with OVCAR-8 ovarian, in the test on SF-539 CNS, in the test on HOP-62 NSCLC and with HCT-116 colon was over 10 µM in each case.
With `COC(=O)C1=C(C)N2[C@H](C(=O)O)CS[C@@]2(C)[C@H](C(=O)OC)[C@H]1c1cccc([N+](=O)[O-])c1`, the TGI in the test on U251 CNS, with NCI/ADR-RES ovarian, in the test on A498 renal, with COLO 205 colon, in the test on MDA-N and with HS 578T breast was over 100 µM in each case. The TGI in the test on SN12C renal, in the test with OVCAR-8 ovarian, in the test on SF-539 CNS, in the test on HOP-62 NSCLC and in the test with HCT-116 colon was over 100 µM throughout.
On to `O=C1NN=C(c2c[nH]c3ccccc23)CC1NCc1ccccc1` (configuration not stated), for which the TGI in the test with U251 CNS, with NCI/ADR-RES ovarian, with A498 renal, in the test on COLO 205 colon, with MDA-N and in the test on HS 578T breast was over 100 µM each time. Further, the TGI with SN12C renal, with OVCAR-8 ovarian, in the test on SF-539 CNS, in the test with HOP-62 NSCLC and in the test on HCT-116 colon was over 100 µM throughout.

For the origin of these results see PubChem BioAssay (NCI).
